Experimental findings from US11753411B2, “Substituted pyrazolo[1,5-a]pyrimidines as TYK2 pseudokinase ligands” (Ventyx Biosciences, Inc., priority 2019, dated 2023) are described below.

The assay relates to IFN-a/Jak1 Tyk2. Put plainly: Co-stimulation assay in lysed whole blood: IFNa (JAK1/TYK2) stimulated STAT1 phosphorylation. It counts as cell-based. To be noted: Homo sapiens, 20 min, 100 ng/mL IFNa (with 10 ng/mL GM-CSF), pSTAT by flow cytometry. Summed up: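 Lysed human whole blood (RBC-lysed, resuspended in cRPMI) pre-incubated with compound 1 h at 37 °C, then stimulated 20 min with IFNa 100 ng/mL plus GM-CSF 10 ng/mL (final). Fixed, permeabilised, stained for pSTAT1 (PE) and pSTAT5 (AF488); flow cytometry read-out, ≥5,000–10,000 cells acquired.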

Where only a bound is given, the exact number is not on record here.

For `CNC(=O)Nc1cnn2c(NC)cc(-c3cn(C4CCOCC4)c4ncccc34)nc12` [Compound 80, 1-methyl-3-(7-(methylamino)-5-(1-(tetrahydro-2H-pyran-4-yl)-1H-pyrrolo[2,3-b]pyridin-3-yl)pyrazolo[1,5-a]pyrimidin-3-yl)urea], the IC50 is less than 1000 nM. To `CNC(=O)Nc1cnn2c(NC)cc(Nc3cc(C#N)cc4c3OCCO4)nc12` [Compound 83, 1-(5-((7-cyano-2,3-dihydrobenzo[b][1,4]dioxin-5-yl)amino)-7-(methylamino)pyrazolo[1,5-a]pyrimidin-3-yl)-3-methylurea] belongs less than 1000 nM; to `CNC(=O)Nc1cnn2c(NC)cc(Nc3cccc4c3CCCC4)nc12` [Compound 170, 1-methyl-3-(7-(methylamino)-5-((5,6,7,8-tetrahydronaphthalen-1-yl)amino)pyrazolo[1,5-a]pyrimidin-3-yl)urea], 1000 to 10000 nM; to `CNC(=O)Nc1cnn2c(NC)cc(Nc3ccccc3OC)nc12` [Compound 149, 1-(5-((2-methoxyphenyl)amino)-7-(methylamino)pyrazolo[1,5-a]pyrimidin-3-yl)-3-methylurea], less than 1000 nM. In the case of `CNc1cc(Nc2cc(F)cc3c2OCCO3)nc2c(NC(=O)NC3CS(=O)(=O)C3)cnn12` [Compound 126, 1-(1,1-dioxidothietan-3-yl)-3-(5-((7-fluoro-2,3-dihydrobenzo[b][1,4]dioxin-5-yl)amino)-7-(methylamino)pyrazolo[1,5-a]pyrimidin-3-yl)urea], the IC50 is 1000 to 10000 nM. To `CNc1cc(Nc2cccc3c2OCCO3)nc2c(NC(=O)NC3CC(=O)C3)cnn12` [Compound 36, 1-(5-((2,3-dihydrobenzo[b][1,4]dioxin-5-yl)amino)-7-(methylamino)pyrazolo[1,5-a]pyrimidin-3-yl)-3-(3-oxocyclobutyl)urea] belongs less than 1000 nM. In the case of `[2H]C1([2H])Oc2cc(F)cc(Nc3cc(NC)n4ncc(NC(=O)N[C@@H]5C[C@@H]5F)c4n3)c2OC1([2H])[2H]` [Compound 182, 1-(5-((7-fluoro-2,3-dihydrobenzo[b][1,4]dioxin-5-yl-2,2,3,3-d4)amino)-7-(methylamino)pyrazolo[1,5-a]pyrimidin-3-yl)-3-((1R,2S)-2-fluorocyclopropyl)urea] it was less than 1000 nM; in that of `CNc1cc(Nc2cccc3c2OCCO3)nc2c(NC(=O)NCC3(C#N)CC3)cnn12` [Compound 138, 1-((1-cyanocyclopropyl)methyl)-3-(5-((2,3-dihydrobenzo[b][1,4]dioxin-5-yl)amino)-7-(methylamino)pyrazolo[1,5-a]pyrimidin-3-yl)urea], less than 1000 nM.

`CNc1cc(Nc2cc(C)cc(C)c2)nc2c(NC(=O)N[C@@H]3C[C@@H]3F)cnn12` [Compound 60, 1-(5-((3,5-dimethylphenyl)amino)-7-(methylamino)pyrazolo[1,5-a]pyrimidin-3-yl)-3-((1R,2S)-2-fluorocyclopropyl)urea] yielded an IC50 not below 10000 nM. To `CNC(=O)Nc1cnn2c(NC)cc(Nc3cccc4c3OCO4)nc12` [Compound 153, 1-(5-(benzo[d][1,3]dioxol-4-ylamino)-7-(methylamino)pyrazolo[1,5-a]pyrimidin-3-yl)-3-methylurea] belongs less than 1000 nM. In the case of `CNC(=O)Nc1cnn2c(NC)cc(Nc3cccc4c3OC(F)(F)O4)nc12` [Compound 115, 1-(5-((2,2-difluorobenzo[d][1,3]dioxol-4-yl)amino)-7-(methylamino)pyrazolo[1,5-a]pyrimidin-3-yl)-3-methylurea] it was 1000 to 10000 nM. In the case of `CNC(=O)Nc1cnn2c(NC)cc(Nc3cc(C)ccc3OC)nc12` [Compound 68, 1-(5-((2-methoxy-5-methylphenyl)amino)-7-(methylamino)pyrazolo[1,5-a]pyrimidin-3-yl)-3-methylurea] it was less than 1000 nM; in that of `CNc1cc(Nc2cc(C(F)(F)F)cc3c2OCCO3)nc2c(NC(=O)NC3CC3)cnn12` [Compound 82, 1-cyclopropyl-3-(7-(methylamino)-5-((7-(trifluoromethyl)-2,3-dihydrobenzo[b][1,4]dioxin-5-yl)amino)pyrazolo[1,5-a]pyrimidin-3-yl)urea], 1000 to 10000 nM. On to `CNc1cc(Nc2cccc3nccnc23)nc2c(NC(=O)NCC#N)cnn12` [Compound 132, 1-(cyanomethyl)-3-(7-(methylamino)-5-(quinoxalin-5-ylamino)pyrazolo[1,5-a]pyrimidin-3-yl)urea], for which the IC50 was less than 1000 nM.

`CNc1cc(Nc2cccc3c2OCCC3(F)F)nc2c(NC(=O)N[C@@H]3C[C@@H]3F)cnn12` [Compound 184, 1-(5-((4,4-difluorochroman-8-yl)amino)-7-(methylamino)pyrazolo[1,5-a]pyrimidin-3-yl)-3-((1R,2S)-2-fluorocyclopropyl)urea] yielded an IC50 of 1000 to 10000 nM.

`CNc1cc(Nc2cc(F)cc3c2OCCO3)nc2c(NC(=O)N[C@@H]3C[C@H]3F)cnn12` [Compound 187, 1-(5-((7-fluoro-2,3-dihydrobenzo[b][1,4]dioxin-5-yl)amino)-7-(methylamino)pyrazolo[1,5-a]pyrimidin-3-yl)-3-((1R,2R)-2-fluorocyclopropyl)urea]: the IC50 fell in the range of 1000 to 10000 nM. In the case of `CNc1cc(Nc2c(F)c(F)cc3c2OCCO3)nc2c(NC(=O)N[C@@H]3C[C@@H]3F)cnn12` [Compound 61, 1-(5-((6,7-difluoro-2,3-dihydrobenzo[b][1,4]dioxin-5-yl)amino)-7-(methylamino)pyrazolo[1,5-a]pyrimidin-3-yl)-3-((1R,2S)-2-fluorocyclopropyl)urea] it was not below 10000 nM; in that of `CNc1cc(Nc2cccc3c2OCCO3)nc2c(NC(=O)NCCOC)cnn12` [Compound 112, 1-(5-((2,3-dihydrobenzo[b][1,4]dioxin-5-yl)amino)-7-(methylamino)pyrazolo[1,5-a]pyrimidin-3-yl)-3-(2-methoxyethyl)urea], less than 1000 nM. To `CNc1cc(Nc2cc(C)cc3c2OCCO3)nc2c(NC(=O)NC3CC3)cnn12` [Compound 79, 1-cyclopropyl-3-(5-((7-methyl-2,3-dihydrobenzo[b][1,4]dioxin-5-yl)amino)-7-(methylamino)pyrazolo[1,5-a]pyrimidin-3-yl)urea] belongs 1000 to 10000 nM; to `CNC(=O)Nc1cnn2c(NC)cc(Nc3cccc(Cl)c3OC)nc12` [Compound 63, 1-(5-((3-chloro-2-methoxyphenyl)amino)-7-(methylamino)pyrazolo[1,5-a]pyrimidin-3-yl)-3-methylurea], 1000 to 10000 nM. To `CNC(=O)Nc1cnn2c(NC)cc(-c3cn(C(C)C)c4ncccc34)nc12` [Compound 72, 1-(5-(1-isopropyl-1H-pyrrolo[2,3-b]pyridin-3-yl)-7-(methylamino)pyrazolo[1,5-a]pyrimidin-3-yl)-3-methylurea] belongs less than 1000 nM; to `CNC(=O)Nc1cnn2c(NC)cc(Nc3cc(C)cc(C)c3)nc12` [Compound 152, 1-(5-((3,5-dimethylphenyl)amino)-7-(methylamino)pyrazolo[1,5-a]pyrimidin-3-yl)-3-methylurea], less than 1000 nM.

As to `CNc1cc(Nc2cccc3c2OCCO3)nc2c(NC(=O)NCCCO)cnn12` [Compound 100, 1-(5-((2,3-dihydrobenzo[b][1,4]dixoin-5-y)amino)-7-(methylamino)pyrazolo[1,5-a]pyrimidin-3-yl)-3-(3-hydroxypropyl)urea], the IC50 lay in the range of 1000 to 10000 nM.

A word on the IC50: it is the concentration needed to halve the response being measured. The low end stands for greater potency, the high end for weaker potency.
